Where two headings read alike, the source gives them in different places.
Experiments:
Format in all cases: binding, Paenibacillus sp. FPU-7
NagB2 [1] = target: T1, NagB2; experiment: SPR (Biacore X100), crystal structure at […] Å, DSF
T1 construct: recombinant without signal peptide (Met1 to Ala20), C-terminal LEHHHHHH

NagB1 [2] = target: T2, NagB1; experiment: SPR (Biacore X100), DSF
T2 construct: recombinant without Met1–Ser21 signal peptide and Cys22–Phe48 (starts at Thr49), C-terminal LEHHHHHH

NagB1 [3] = target: T2, NagB1; experiment: SPR (Biacore X100), crystal structure at […] Å, DSF
NagB2 [4] = target: T1, NagB2; experiment: SPR (Biacore X100), crystal structure at […] Å, DSF; remark: listed apart in the source

SMILES	Kd (NagB2 [1])	Kd (NagB1 [2])	Kd (NagB1 [3])	Kd (NagB2 [4])
CC(=O)N[C@H]1[C@H](O[C@H]2[C@H](O)[C@@H](NC(C)=O)C(O)O[C@@H]2CO)O[C@H](CO)[C@@H](O[C@@H]2O[C@H](CO)[C@@H](O)[C@H](O)[C@H]2NC(C)=O)[C@@H]1O (stereo partly shown) [(GlcNAc)3, N,N′,N′′-triacetylchitotoriose]	1.12 µM	2.97 µM	–	–
CC(=O)N[C@H]1[C@H](O[C@H]2[C@H](O)[C@@H](NC(C)=O)C(O)O[C@@H]2CO)O[C@H](CO)[C@@H](O)[C@@H]1O (stereo partly shown) [(GlcNAc)2, N,N′-diacetylchitobiose]	–	–	0.173 µM	0.19 µM

From PMC8233162, “Structural characterization of two solute-binding proteins for N,N′-diacetylchitobiose/N,N′,N′′-triacetylchitotoriose of the gram-positive bacterium, Paenibacillus sp. str. FPU-7” (Journal of Structural Biology: X, 2021)
